From US8563717B2, “Adenine derivatives” (GlaxoSmithKline LLC, priority 2008, dated 2013) come the findings set out here.

Molecules are shown by their SMILES. Counter-ions that a name gives are not always drawn.

The test system of this test is Interferon-α. The test is described as follows: Induction of Interferon-α using cryopreserved human PBMCs. Particulars: PBMC, 24 h incubation, normalised to 1 uM resiquimod, read-out: mean pEC50 for induction of IFN-α (converted). In kind it is cell-based. As to the method: Assay for the Induction of Interferon-α Using Cryopreserved Human Peripheral Blood Mononuclear Cells (PBMCs)
Compounds were dissolved in DMSO. Serial 2-fold dilutions with DMSO were prepared and 0.25 μl dispensed into 384-well clear Greiner polypropylene plates.
Blood samples of up to 200 ml were obtained from healthy human donors. Whole blood in 25 ml volumes was overlaid onto 15 ml Ficoll gradients in Leucosep tubes, and centrifuged at 1000 g for 20 min. Cells in the band at the plasma/histopaque interface were carefully removed and washed twice with PBS (centrifuged at 400 g for 5 min to harvest). The final pellet was resuspended in freezing medium (90% Heat-inactivated serum, 10% DMSO) to a cell concentration of 4×10^7 cells/ml. The resuspended cells were then cryopreserved (frozen) using a rate controlled freezer, and stored at −140° C. for up to 4 months.
Immediately prior to assay, vials of cryopreserved (frozen) PBMCs were thawed rapidly in a water bath at 37° C. A 1:10 dilution of the cells in trypan blue was prepared and counted. The PBMCs were then diluted in growth media [RPMI 1640 containing 10% fetal calf serum (invitrogen), Penicillin+[…] (Gibco cat. #25030-024, 1:50), L-Glutamine 2 mM, and 1000 units/ml recombinant human IFN-gamma (Preprotech catalogue #300-02)] to a density of 1×10^6 cells/ml, and 50 ul/well dispensed to 384-well clear Greiner polypropylene plates containing 0.25 μl DMSO or test compound in 0.25 μl DMSO. […] Plates were incubated for 24 h at 37° C. in 5% CO2.
A multi-isoform immunoassay was used to quantify IFN-α in PBMC supernatants. Rabbit polyclonal antibody against human IFN-α (catalogue number 31101, Stratech Scientific) was diluted 1:10000 in assay buffer (RPMI 1640 containing 10% fetal calf serum, Invitrogen) and 20 μl was added to each well of an MSD (Meso-Scale Discovery) single small-spot 384-well GAR (goat anti-rabbit antibody coated) plate. The plate was incubated for 1 hour at room temperature with vigorous shaking. Following three washes with PBS, 20 μl of cell supernatant were added to each well of the plate. The plate was then incubated for 1 hour at room temperature with vigorous shaking. A pair of monoclonal antibodies to IFN-α (catalogue numbers 21100 and 21112, Stratech Scientific) were labelled with sulfo-TAG (MSD), diluted 1:1000 in assay buffer and 20 μl added to each well of the plate. The plate was further incubated for 1 hour at room temperature with vigorous shaking. Following three washes with PBS, 30 μl of x2 T buffer (MSD) was added to each well and the plate was read on an MSD Sector 6000 plate reader.
Data were normalised to internal plate controls of 1 uM resiquimod (n=16) and DMSO (n=16). pEC50 values were derived by 4-parameter curve fit with IRLS in ActivityBase, from 11-point, two-fold serial dilution of test compounds.
For `CCCCOc1nc(N)c2[nH]c(=O)n(CC3CCN(C4CCCC4)CC3)c2n1` [Example 75, 6-Amino-2-(butyloxy)-9-[(1-cyclopentyl-4-piperidinyl)methyl]-7,9-dihydro-8H-purin-8-one], the EC50 is less than 1580 nM.
The figure for `CCC[C@H](C)Oc1nc(N)c2[nH]c(=O)n(CCCC3CCN(CC)CC3)c2n1` [Example 105, 6-Amino-9-[3-(1-ethyl-4-piperidinyl)propyl]-2-{[(1S)-1-methylbutyl]oxy}-7,9-dihydro-8H-purin-8-one] is less than 1580 nM; for `CCCCOc1nc(N)c2[nH]c(=O)n(CCCCC3CCN(CCC4CCCCC4)CC3)c2n1` [Example 117, 6-Amino-2-(butyloxy)-9-{4-[1-(2-cyclohexylethyl)-4-piperidinyl]butyl}-7,9-dihydro-8H-purin-8-one] it is less than 1580 nM; for `CCCCOc1nc(N)c2[nH]c(=O)n(CCCCC3CCCN(C(C)C)C3)c2n1` (centres unmarked) [Example 58, 6-Amino-2-(butyloxy)-9-{4-[1-(1-methylethyl)-3-piperidinyl]butyl}-7,9-dihydro-8H-purin-8-one] it is less than 1580 nM.
The figure for `CCCCOc1nc(N)c2[nH]c(=O)n(CCCC3CCCN(CCCC)C3)c2n1` (centres unmarked) [Example 47, 6-Amino-2-(butyloxy)-9-[3-(1-butyl-3-piperidinyl)propyl]-7,9-dihydro-8H-purin-8-one] is less than 1580 nM.
Then `CCCCOc1nc(N)c2[nH]c(=O)n(CCCC3CCN(C4CCCC4)CC3)c2n1` [Example 100, 6-Amino-2-(butyloxy)-9-[3-(1-cyclopentyl-4-piperidinyl)propyl]-7,9-dihydro-8H-purin-8-one], with less than 1580 nM; and `CCCCOc1nc(N)c2[nH]c(=O)n(CCCCC3CCNCC3)c2n1` [Example 107, 6-Amino-2-(butyloxy)-9-[4-(4-piperidinyl)butyl]-7,9-dihydro-8H-purin-8-one], with less than 1580 nM.
In the case of `CCCCNc1nc(N)c2[nH]c(=O)n(CC3CCCN(CC)C3)c2n1` (centres unmarked) [Example 2, 6-Amino-2-(butylamino)-9-[(1-ethyl-3-piperidinyl)methyl]-7,9-dihydro-8H-purin-8-one], the EC50 is less than 1580 nM.
Then `CCCCOc1nc(N)c2[nH]c(=O)n(CCCCCC3CCN(C4CCCC4)CC3)c2n1` [Example 129, 6-Amino-2-(butyloxy)-9-[5-(1-cyclopentyl-4-piperidinyl)pentyl]-7,9-dihydro-8H-purin-8-one], with less than 1580 nM; and `CCCCOc1nc(N)c2[nH]c(=O)n(CCCCCC3CCCNC3)c2n1` (centres unmarked) [Example 67, 6-Amino-2-(butyloxy)-9-[5-(3-piperidinyl)pentyl]-7,9-dihydro-8H-purin-8-one], with less than 1580 nM; and `CCCCOc1nc(N)c2[nH]c(=O)n(CC3CCN(CCC)CC3)c2n1` [Example 70, 6-Amino-2-(butyloxy)-9-[(1-propyl-4-piperidinyl)methyl]-7,9-dihydro-8H-purin-8-one], with less than 1580 nM.
As to `CCCCOc1nc(N)c2[nH]c(=O)n(CCCCC3CCN(CC4CCCC4)CC3)c2n1` [Example 115, 6-Amino-2-(butyloxy)-9-{4-[1-(cyclopentylmethyl)-4-piperidinyl]butyl}-7,9-dihydro-8H-purin-8-one], the EC50 was less than 1580 nM.
The figure for `CCCCOc1nc(N)c2[nH]c(=O)n(CC3CCN(C(C)C)CC3)c2n1` [Example 71, 6-Amino-2-(butyloxy)-9-{[1-(1-methylethyl)-4-piperidinyl]methyl}-7,9-dihydro-8H-purin-8-one] is less than 1580 nM.
Then `CCCCOc1nc(N)c2[nH]c(=O)n(CCCC3CCNCC3)c2n1` [Example 93, 6-Amino-2-(butyloxy)-9-[3-(4-piperidinyl)propyl]-7,9-dihydro-8H-purin-8-one], with less than 1580 nM.
Then `CCCCOc1nc(N)c2[nH]c(=O)n(CCCC3CCCCN3CC)c2n1` (centres unmarked) [Example 14, 6-Amino-2-(butyloxy)-9-[3-(1-ethyl-2-piperidinyl)propyl]-7,9-dihydro-8H-purin-8-one], with less than 1580 nM.
Turning to `CCCCOc1nc(N)c2[nH]c(=O)n(CCCCC3CCN(C(C)C)CC3)c2n1` [Example 109, 6-Amino-2-(butyloxy)-9-{4-[1-(1-methylethyl)-4-piperidinyl]butyl}-7,9-dihydro-8H-purin-8-one], the EC50 is less than 1580 nM.
Then `CCCCOc1nc(N)c2[nH]c(=O)n(CCCC3CCCN(CC)C3)c2n1` (centres unmarked) [Example 44, 6-Amino-2-(butyloxy)-9-[3-(1-ethyl-3-piperidinyl)propyl]-7,9-dihydro-8H-purin-8-one], with less than 1580 nM; and `CCCCOc1nc(N)c2[nH]c(=O)n(CCCCC3CCCN(CC(C)C)C3)c2n1` (centres unmarked) [Example 60, 6-Amino-2-(butyloxy)-9-{4-[1-(2-methylpropyl)-3-piperidinyl]butyl}-7,9-dihydro-8H-purin-8-one hydrochloride], with less than 1580 nM.
The figure for `CCCCOc1nc(N)c2[nH]c(=O)n(CCC3CCCN(C(CC)CC)C3)c2n1` (centres unmarked) [Example 35, 6-Amino-2-(butyloxy)-9-{2-[1-(1-ethylpropyl)-3-piperidinyl]ethyl}-7,9-dihydro-8H-purin-8-one] is less than 1580 nM; for `CCCCOc1nc(N)c2[nH]c(=O)n(CC3CCCN(CCCC)C3)c2n1` (centres unmarked) [Example 25, 6-Amino-2-(butyloxy)-9-[(1-butyl-3-piperidinyl)methyl]-7,9-dihydro-8H-purin-8-one] it is less than 1580 nM.
The figure for `CCCCOc1nc(N)c2[nH]c(=O)n(CCC3CCCCN3)c2n1` (centres unmarked) [Example 11, 6-Amino-2-(butyloxy)-9-[2-(2-piperidinyl)ethyl]-7,9-dihydro-8H-burin-8-one] is less than 1580 nM; for `CCCCOc1nc(N)c2[nH]c(=O)n(CC3CCNCC3)c2n1` [Example 3, hydrochloride] it is less than 1580 nM; for `CCCCOc1nc(N)c2[nH]c(=O)n(CCCCCC3CCCN(CC)C3)c2n1` (centres unmarked) [Example 68, 6-Amino-2-(butyloxy)-9-[5-(1-ethyl-3-piperidinyl)pentyl]-7,9-dihydro-8H-purin-8-one] it is less than 1580 nM.
Turning to `CCCCOc1nc(N)c2[nH]c(=O)n(CCCCCC3CCN(CCC(C)C)CC3)c2n1` [Example 128, 6-amino-2-(butyloxy)-9-{5-[1-(3-methylbutyl)-4-piperidinyl]pentyl}-7,9-dihydro-8H-purin-8-one], the EC50 is less than 1580 nM.
The figure for `CCCCOc1nc(N)c2[nH]c(=O)n(CCCC3CCCCN3C3CCCC3)c2n1` (centres unmarked) [Example 20, 6-Amino-2-(butyloxy)-9-[3-(1-cyclopentyl-2-piperidinyl)propyl]-7,9-dihydro-8H-purin-8-one] is less than 1580 nM; for `CCCCOc1nc(N)c2[nH]c(=O)n(CCCC3CCN(CCC4CCCCC4)CC3)c2n1` [Example 103, 6-Amino-2-(butyloxy)-9-{3-[1-(2-cyclohexylethyl)-4-piperidinyl]propyl}-7,9-dihydro-8H-purin-8-one] it is less than 1580 nM; for `CCCCOc1nc(N)c2[nH]c(=O)n(CCCC3CCN(CCC(C)C)CC3)c2n1` [Example 99, 6-Amino-2-(butyloxy)-9-{3-[1-(3-methylbutyl)-4-piperidinyl]propyl}-7,9-dihydro-8H-purin-8-one] it is less than 1580 nM.
Then `CCCCOc1nc(N)c2[nH]c(=O)n(CC3CCN(CCC(C)C)CC3)c2n1` [Example 74, 6-Amino-2-(butyloxy)-9-{[1-(3-methylbutyl)-4-piperidinyl]methyl}-7,9-dihydro-8H-purin-8-one], with less than 1580 nM.
Then `CCCCOc1nc(N)c2[nH]c(=O)n(CCC3CCN(CC(C)C)CC3)c2n1` [Example 83, 6-Amino-2-(butyloxy)-9-{2-[1-(2-methylpropyl)-4-piperidinyl]ethyl}-7,9-dihydro-8H-purin-8-one], with less than 1580 nM.
For the compound `CCCCOc1nc(N)c2[nH]c(=O)n(CCC3CCCN(C4CCCC4)C3)c2n1` (centres unmarked) [Example 36, 6-Amino-2-(butyloxy)-9-[2-(1-cyclopentyl-3-piperidinyl)ethyl]-7,9-dihydro-8H-purin-8-one], the EC50 is less than 1580 nM.
The figure for `CCCCOc1nc(N)c2[nH]c(=O)n(CCC3CCCCN3CC)c2n1` (centres unmarked) [Example 12, 6-Amino-2-(butyloxy)-9-[2-(1-ethyl-2-piperidinyl)ethyl]-7,9-dihydro-8H-purin-8-one] is less than 1580 nM.
The figure for `CCCCOc1nc(N)c2[nH]c(=O)n(CCCCCCC3CCN(CC)CC3)c2n1` [Example 133, 6-Amino-2-(butyloxy)-9-[6-(1-ethyl-4-piperidinyl)hexyl]-7,9-dihydro-8H-purin-8-one] is less than 1580 nM.
